Counter-ions that a name gives are not always drawn.
target: T1, VEGFR/KDR (Homo sapiens, UniProt P35968); test: VEGFR/KDR kinase inhibition, DELFIA assay; format: biochemical; details: ATP 0.6 uM (2x Km), enzyme 5 nM
T1 construct: made in house; host or cells: Sf9 cells (Spodoptera frugiperda), baculovirus
Outline: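 DELFIA time-resolved fluorescence readout using Europium-tagged anti-phosphotyrosine antibody after EDTA stop. Kinase reaction on plate-bound poly(Glu4,Tyr) ran 10-30 min at 30° C with 5 nM enzyme and 0.6 uM ATP (2× Km), following 4 min on-ice pre-incubation with compound; IC50 over a concentration range.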

T1 sequence (P35968 806-1356): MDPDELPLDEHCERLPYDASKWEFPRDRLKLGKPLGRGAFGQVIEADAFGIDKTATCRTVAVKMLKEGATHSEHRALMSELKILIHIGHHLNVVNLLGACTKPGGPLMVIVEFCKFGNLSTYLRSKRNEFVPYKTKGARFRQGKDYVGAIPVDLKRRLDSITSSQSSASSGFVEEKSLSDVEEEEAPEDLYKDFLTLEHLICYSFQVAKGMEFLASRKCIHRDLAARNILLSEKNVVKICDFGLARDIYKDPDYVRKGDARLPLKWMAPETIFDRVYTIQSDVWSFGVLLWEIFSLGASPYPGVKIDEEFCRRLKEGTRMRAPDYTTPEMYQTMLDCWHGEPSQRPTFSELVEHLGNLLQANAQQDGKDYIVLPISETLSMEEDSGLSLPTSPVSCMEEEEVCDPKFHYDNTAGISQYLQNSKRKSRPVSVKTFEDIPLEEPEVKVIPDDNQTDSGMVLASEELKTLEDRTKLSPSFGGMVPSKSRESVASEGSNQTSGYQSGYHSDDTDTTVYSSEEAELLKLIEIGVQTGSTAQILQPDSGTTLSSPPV

IC50, < 0.05 µM:
COCCOCCOCCOCCNC(=O)c1ccc(-c2cc3nccc(Oc4ccc(NC(=O)NC5CC5)cc4F)c3s2)nc1 [Compound 229, 6-(7-(4-(3-cyclopropylureido)-2-fluorophenoxy)thieno[3,2-b]pyridin-2-yl)-N-(2,5,8,11-tetraoxatridecan-13-yl)nicotinamide]
O=C(Nc1ccc(Oc2ccnc3cc(-c4ccc(C(=O)N5CCN(CCN6CCOCC6)CC5)cn4)sc23)c(F)c1)NC1CC1 [Compound 231, 1-cyclopropyl-3-(3-fluoro-4-(2-(5-(4-(2-morpholinoethyl)piperazine-1-carbonyl)pyridin-2-yl)thieno[3,2-b]pyridin-7-yloxy)phenyl)urea]
CN1CCN(CCNC(=O)c2ccc(-c3cc4nccc(Oc5ccc(NC(=O)NC6CC6)cc5F)c4s3)nc2)CC1 [Compound 233, 6-(7-(4-(3-cyclopropylureido)-2-fluorophenoxy)thieno[3,2-b]pyridin-2-yl)-N-(2-(4-methylpiperazin-1-yl)ethyl)nicotinamide formate salt]
O=C(Nc1ccc(Oc2ccnc3cc(-c4ccc(C(=O)NCCN5CCOCC5)cn4)sc23)c(F)c1)NC1CC1 [Compound 235, 6-(7-(4-(3-cyclopropylureido)-2-fluorophenoxy)thieno[3,2-b]pyridin-yl)-N-(2-morpholinoethyl)nicotinamide]
CCOC(=O)CCN1CCN(C(=O)c2ccc(-c3cc4nccc(Oc5ccc(NC(=O)NC6CC6)cc5F)c4s3)nc2)CC1 [Compound 236, ethyl 3-(4-(6-(7-(4-(3-cyclopropylureido)-2-fluorophenoxy)thieno-[3,2-b]pyridin-2-yl)nicotinoyl)piperazin-1-yl)propanoate]
CCOC(=O)C1CCCN(C(=O)c2ccc(-c3cc4nccc(Oc5ccc(NC(=O)NC6CC6)cc5F)c4s3)nc2)C1 (centres unmarked) [Compound 237, ethyl 1-(6-(7-(4-(3-cyclopropylureido)-2-fluorophenoxy)thieno-[3,2-b]pyridin-2-yl)nicotinoyl)piperidine-3-carboxylate]
CCCCOC(=O)C1CN(C(=O)c2ccc(-c3cc4nccc(Oc5ccc(NC(=O)NC6CC6)cc5F)c4s3)nc2)CCO1 (centres unmarked) [Compound 238, butyl 4-(6-(7-(4-(3-cyclopropylureido)-2-fluorophenoxy)thieno[3,2-b]pyridin-2-yl)nicotinoyl)morpholine-2-carboxylate]
O=C(O)CCN1CCN(C(=O)c2ccc(-c3cc4nccc(Oc5ccc(NC(=O)NC6CC6)cc5F)c4s3)nc2)CC1 [Compound 239, 3-(4-(6-(7-(4-(3-cyclopropylureido)-2-fluorophenoxy)thieno[3,2-b]pyridin-2-yl)nicotinoyl)piperazin-1-yl)propanoic acid tetraacetate]
O=C(Nc1ccc(Oc2ccnc3cc(-c4ccc(C(=O)N5CCCC(C(=O)O)C5)cn4)sc23)c(F)c1)NC1CC1 (centres unmarked) [Compound 240, 1-(6-(7-(4-(3-cyclopropylureido)-2-fluorophenoxy)thieno[3,2-b]-pyridin-2-yl)nicotinoyl)piperidine-3-carboxylic acid]
O=C(Nc1ccc(Oc2ccnc3cc(-c4ccc(C(=O)N5CCOC(C(=O)O)C5)cn4)sc23)c(F)c1)NC1CC1 (centres unmarked) [Compound 241, 4-(6-(7-(4-(3-cyclopropylureido)-2-fluorophenoxy)thieno[3,2-b]-pyridin-2-yl)nicotinoyl)morpholine-2-carboxylic acid]
COCCNCCn1cc(-c2cc3nccc(Oc4ccc(NC(=O)NC5CC5)cc4F)c3s2)cn1 [Compound 247, 1-cyclopropyl-3-(3-fluoro-4-(2-(1-(2-(2-methoxyethylamino)ethyl)-1H-pyrazol-4-yl)thieno[3,2-b]pyridin-7-yloxy)phenyl)urea]
